Measurements: patent US6462081B1, “5-thia-ω-substituted phenyl-prostaglandin E derivatives, process for producing the same and drugs containing the same as the active ingredient” (Ono Pharmaceutical Co., Ltd., priority 1998, dated 2002)

Assays:
mouse EP1 = target: T1, mouse EP1 (Mus musculus, UniProt P35375); test: Binding assay using CHO cell membrane expressing prostanoid receptor subtype, [3H]-PGE2 competition; settings: CHO cell membrane fraction, 2.5 nM [3H]-PGE2, 1 hour at room temperature, pH6.0
T1 construct: expressed in transfected cells; host or cells: CHO cells, membrane fraction
T1 sequence (P35375 1-405): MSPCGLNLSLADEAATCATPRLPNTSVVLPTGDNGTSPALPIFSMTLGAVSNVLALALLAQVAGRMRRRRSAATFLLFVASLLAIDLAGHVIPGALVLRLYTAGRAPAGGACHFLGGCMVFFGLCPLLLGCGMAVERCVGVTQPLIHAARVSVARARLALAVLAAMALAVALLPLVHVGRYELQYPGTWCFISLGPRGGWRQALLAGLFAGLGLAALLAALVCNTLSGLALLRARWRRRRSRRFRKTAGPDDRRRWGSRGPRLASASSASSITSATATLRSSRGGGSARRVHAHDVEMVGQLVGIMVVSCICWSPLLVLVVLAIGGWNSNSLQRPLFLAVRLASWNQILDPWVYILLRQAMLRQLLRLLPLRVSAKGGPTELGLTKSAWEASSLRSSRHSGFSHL
Method: (§1) For example, in a standard laboratory test, such effects of the compound of the present invention were confirmed by binding assay using cell expressing the prostanoid receptor subtypes. (i) Binding assay using cell expressing the prostanoid receptor subtypes The preparation of membrane fraction was carried out according to the method of Sugimoto et al (J. Biol. Chem., 267, 6463-6466 (1992)), using CHO cell expressing prostanoid receptor subtype (mouse EP1, EP2, EP3, and EP4, and human IP).
(§2) The reaction solution (200 μl) containing membrane fraction (0.5 mg/ml), [^3H]-PGE2 was incubated for 1 hour at room temperature. The reaction was terminated by addition of 3 ml of ice-cold buffer. The mixture was rapidly filtered under reduced pressure through a glass filter (GF/B). The radioactivity associated with the filter was measured by liquid scintillation counter.
(§3) Kd and Bmax values were determined from Scatchard plots [Ann. N.Y. Acad. Sci., 51, 660 (1949)]. Non-specific binding was calculated as the amount bound in the presence of an excess (2.5 μM) of unlabeled PGE2. In the experiment for competition of specific [^3H]-PGE2 binding by the compounds of the present invention, [^3H]-PGE2 was added at a concentration of 2.5 nM and the compound of the present invention was added at various concentrations. The following buffer was used in all reactions. Buffer: 10 mM potassium phosphate (pH6.0), 1 mM EDTA, 10 mM MgCl2, 0.1 M NaCl
(§4) The dissociation constant Ki (μM) of each compound was calculated by the following equation.

mouse EP4 = target: T2, mouse EP4 (Mus musculus, UniProt P32240); test: as above; settings: CHO cell membrane fraction, 2.5 nM [3H]-PGE2, 1 hour at room temperature, pH6.0
T2 construct: expressed in transfected cells; host or cells: CHO cells, membrane fraction
T2 sequence (P32240 whole entry): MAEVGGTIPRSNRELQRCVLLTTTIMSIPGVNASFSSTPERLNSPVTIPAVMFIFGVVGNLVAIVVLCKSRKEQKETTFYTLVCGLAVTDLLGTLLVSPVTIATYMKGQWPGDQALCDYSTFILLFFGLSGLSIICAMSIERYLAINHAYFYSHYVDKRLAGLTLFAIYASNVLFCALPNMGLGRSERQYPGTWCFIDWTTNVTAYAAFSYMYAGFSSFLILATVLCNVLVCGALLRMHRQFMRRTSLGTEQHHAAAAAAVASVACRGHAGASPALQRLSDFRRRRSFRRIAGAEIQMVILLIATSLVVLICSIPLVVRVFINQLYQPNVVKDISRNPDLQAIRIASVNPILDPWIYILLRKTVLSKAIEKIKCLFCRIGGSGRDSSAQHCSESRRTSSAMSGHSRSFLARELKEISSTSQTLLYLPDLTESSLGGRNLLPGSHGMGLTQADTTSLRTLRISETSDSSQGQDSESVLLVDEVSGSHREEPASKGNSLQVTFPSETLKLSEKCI
Method: as §1, §2, §3, §4

EP3α = target: T3, EP3α (Mus musculus, UniProt P30557); test: as above; settings: CHO cell membrane fraction, 2.5 nM [3H]-PGE2, 1 hour at room temperature, pH6.0
T3 construct: expressed in transfected cells; host or cells: CHO cells, membrane fraction
T3 sequence (P30557 1-365): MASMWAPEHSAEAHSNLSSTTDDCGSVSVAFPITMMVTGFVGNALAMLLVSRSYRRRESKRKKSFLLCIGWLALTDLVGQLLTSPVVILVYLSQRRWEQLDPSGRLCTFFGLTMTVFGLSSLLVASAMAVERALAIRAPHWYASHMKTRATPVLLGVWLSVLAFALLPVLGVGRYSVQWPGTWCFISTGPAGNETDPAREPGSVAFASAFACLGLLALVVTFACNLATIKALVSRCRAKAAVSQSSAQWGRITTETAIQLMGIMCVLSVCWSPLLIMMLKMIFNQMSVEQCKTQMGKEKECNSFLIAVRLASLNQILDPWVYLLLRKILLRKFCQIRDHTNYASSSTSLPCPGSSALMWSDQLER
Method: as §1, §2, §3, §4

rat = test: Toxicity: maximum tolerance dose by i.v. route in rat; assay type: in vivo
Method: The toxicity of the compounds of the formula (I) of the present invention is very low and therefore, it is confirmed that these compounds are safe for use as medicine. For example, the maximum tolerance dose of the compound of Example 1 by i.v. route in rat was 30 mg/kg body weight or more.

Row | Ki (mouse EP1) [nM] | Ki (mouse EP4) [nM] | Ki (EP3α) [nM] | Molecule | maximum tolerance dose (rat) [mg/kg body weight]
1 | > 10000 | 2.4 | 2900 | Cc1cc(C[C@H](O)/C=C/[C@H]2[C@H](O)CC(=O)[C@@H]2CCSCCCC(=O)O)ccc1O [3 (1), (11α,13E,15α)-9-oxo-11,15-Dihydroxy-16-(3-methyl-4-hydroxyphenyl)-17,18,19,20-tetranor-5-thiaprost-13-enoic Acid] | 
2 | > 10000 | 7.9 | > 10000 | COCc1cccc(C[C@H](O)/C=C/[C@@H]2[C@@H](CCSCCCC(=O)O)[C@H](Cl)C[C@H]2O)c1 [3 (2), (9β,11α,13E,15α)-9-Chloro-11,15-dihydroxy-16-(3-methoxymethylphenyl)-17,18,19,20-tetranor-5-thiaprost-13-enoic Acid] | 
3 | > 10000 | 18 | 1500 | COCc1cccc(C[C@H](O)/C=C/[C@@H]2[C@@H](CCSCCCC(=O)O)[C@H](F)C[C@H]2O)c1 [3 (3), (9β,11α,13E,15α)-9-Fluoro-11,15-dihydroxy-16-(3-methoxymethylphenyl)-17,18,19,20-tetranor-5-thiaprost-13-enoic Acid] | 
4 | > 10000 | 15 | 570 | CCCOCc1cccc(C[C@H](O)/C=C/[C@H]2[C@H](O)CC(=O)[C@@H]2CCSCCCC(=O)O)c1 [3 (5), (11α,13E,15α)-9-oxo-11,15-Dihydroxy-16-(3-n-propyloxymethylphenyl)-17,18,19,20-tetranor-5-thiaprost-13-enoic Acid] | 
5 |  |  |  | COCc1cccc(C[C@H](O)/C=C/[C@H]2[C@H](O)CC(=O)[C@@H]2CCSCCCC(=O)OC)c1 [Example 1, (11α,13E,15α)-9-oxo-11,15-Dihydroxy-16-(3-methoxymethylphenyl)-17,18,19,20-tetranor-5-thiaprost-13-enoic Acid·Methyl Ester] | ≥ 30
6 | > 10000 | 3.8 | 840 | COCc1cccc(C[C@H](O)/C=C/[C@H]2[C@H](O)CC(=O)[C@@H]2CCSCCCC(=O)O)c1 [Example 3, (11α,13E,15α)-9-oxo-11,15-Dihydroxy-16-(3-methoxymethylphenyl)-17,18,19,20-tetranor-5-thiaprost-13-enoic Acid] | 
7 | > 10000 | 6.2 | 460 | COCc1cccc(C[C@H](O)CC[C@H]2[C@H](O)CC(=O)[C@@H]2CCSCCCC(=O)O)c1 [Example 6, (11α,15α)-9-oxo-11,15-Dihydroxy-16-(3-methoxymethylphenyl)-17,18,19,20-tetranor-5-thiaprostanoic Acid] | 
8 | > 10000 | 10 | 500 | (11α,13E,15α)-9-oxo-11,15-Dihydroxy-16-(3-ethoxymethylphenyl)-17,18,19,20-tetranor-5-thiaprost-13-enoic Acid [3 (4)] | 
